Values quoted from earlier work, collected in patent US20140037700A1, “Composition and Method for Enhancing an Immune Response” (priority 2011, published 2014).

Legend:
[1] = combined with liposomes
[2] = tested on: M. tb cells in NRP2 state; details: oxygen 0.06% of normal saturation (anaerobic)
[3] = tested on: tuberculosis growth in human monocytes; parameters: dose or concentration left out as unconfirmed; details: alone, in vitro; Denis et al.
[4] = tested on: anti-microbial peptide cathelicidin; details: exposure of macrophages
[5] = in the presence of a normal or high calcium diet; DeLuca et al.
TACO gene transcription = details: human macrophages
[6] = tested on: M. tuberculosis survival within macrophages

Monophosphoryl lipid A
mucosal immunoprotective responses [1]: induce mucosal immunoprotective responses

Cc1ncc([N+](=O)[O-])n1CCO [metronidazole]
susceptibility of NRP2 cells to antibiotic [2]: sensitive

C=C1/C(=C\C=C2/CCC[C@]3(C)[C@@H]([C@H](C)CCCC(C)(C)O)CC[C@@H]23)C[C@@H](O)C[C@@H]1O [Calcitriol, 1,25-dihydroxyvitamin D]
bacillary replication in macrophages (M.tb within macrophages; even at extremely low concentrations, Crowle et al.): slow and stop bacillary replication
colony forming units (M.tb within macrophages; primary human macrophages infected with virulent M. tb): reduced colony forming units
ability of human monocytes to restrict tuberculosis growth [3]: significant ability to restrict tuberculosis growth
expression of anti-microbial peptide cathelicidin [4]: induces expression
prevention or suppression of autoimmune disease in models [5]: prevent or markedly suppress

epigallocatechin-3-gallate [EGCG]
TACO gene transcription (TACO gene transcription): down-regulates TACO gene transcription in a dose-dependent manner
mycobacterium survival within macrophages ([6]; in vitro, flow cytometry and colony counts): substantially reduced mycobacterium survival
M. tuberculosis survival within macrophages ([6]; used prior to M. tb exposure in vitro): completely inhibits

NNC(=O)c1ccncc1 [isoniazid]
susceptibility of NRP2 cells to antibiotic [2]: resistant
